Source: patent US8105604B2, “WT1 modified peptide” (International Institute of Cancer Immunology, Inc., priority 2001, dated 2012)
Where two headings read alike, the source gives them in different places. Residues, ends and D or L forms follow the SMILES beside them. No end group written: not given here.

Assays:
HLA-A*2402 [1] = target: T1, HLA-A*2402 (Homo sapiens, UniProt P04439, D101N/D140Y/D185E/E176V/E190D/F33S/G103R/G107R/I119L/I121M/I306V/K335N/L105A/L180Q/L300P/N151K/N90K/Q86E/Q94H/R106L/R138H/R89G/T104I/T345S/V100E/W191G/Y123F); assay: Binding affinity to HLA-A*2402 on acid-treated C1RA2402 cells (flow cytometry)
Description: After washing the cells with the medium, they were suspended at a concentration of 2×10^6 cells/ml in DMEM medium containing 200 nM β2-microglobulin (Sigma) and 0.5% bovine serum albumin. 15 μl of the cell suspension were mixed with 50 μl of the medium comprising various concentrations of WT1 peptide followed by incubating for 4 hours at room temperature. After washing the cells, they were stained with monoclonal antibody to HLA-A24 labeled with FITC (clone name: 7A12), and the amount of HLA-A24 expressed was analyzed with a flow cytometer FACS system.

[2] = system: RERF-LCAI, LC1sq, 11-18 and LK87 lung cancer cells; assay: 51Cr release cytotoxicity assay on lung cancer cell lines; format: cell-based; details: FIG. 4; E:T 20:1, 4 hours
Description: The cytotoxic activity of effector cells stimulated with WT1 wild peptide or WT1 modified peptide was tested on a cancer cell line associated with lung cancer that endogenously expresses WT1 antigen (target cells) using the ^51Cr release method.

[3] = system: peripheral blood mononuclear cells from HLA-A*2402-positive donors; assay: Stimulation of peripheral blood mononuclear cells with peptide; status of the resulting cells; format: cell-based, human
Description: Peripheral blood mononuclear cells were isolated from HLA-A*2402-positive donors and distributed among the wells of a 24-well plate at 2×10^6 cells/well followed by the addition of WT1 wild peptide or WT1 modified peptide to a concentration of 20 μM and culturing for 1 week. The medium used at this time consisted of 45% RPMI, 45% AIV, 10% FCS 1× non-essential amino acids and SM/PCG. Following the aforementioned culturing, the cells were adjusted to 2×10^6 cells/well and used as responder cells.
On the other hand, other peripheral blood mononuclear cells were similarly isolated from the same HLA-A*2402-positive donors and then peptide-pulsed by culturing for 4 days with one of the aforementioned peptides at 20 μM. After then irradiating at 30 Gy, the cells were adjusted to 4×10^6 cells/well and used as stimulator cells.
The responder cells and stimulator cells prepared in the manner described above were then mixed and then cultured for 1 week following the addition of IL-2 at 50 U/ml.

[4] = system: C1R2402 cells pulsed with WT1 wild peptide; assay: Blocking assay using antibody (51Cr release); format: cell-based; details: FIG. 5; E:T 20:1, 4 hours; anti-HLA class I, anti-HLA class II, anti-CD8 antibody
Excerpt: The antibodies used consisted of anti-HLA class I antibody, anti-HLA class II antibody and anti-CD8 antibody.

C1R2402 cells = assay: Killing assay (51Cr release) by peptide-stimulated effector cells on peptide-pulsed C1R2402 target cells; format: cell-based
Excerpt: FIG. 1 is a graph showing the cell killing effects (specific cytolytic activity) on C1R2402 target cells (T), either pulsed or not pulsed with peptide, by effecter cells (E) stimulated with WT1 wild peptide (Sequence ID No. 2) or the WT1 modified peptide of the present invention (Sequence ID No. 3). In the graph, the black circles indicate the cytolytic effect on C1R2402 target cells pulsed with wild peptide by effecter cells stimulated with WT1 modified peptide, the black squares indicate the cytolytic effect on […] target cells pulsed with wild peptide by effecter cells stimulated with WT1 wild peptide, the white circles indicate the cytolytic effect on C1R2402 target cells not pulsed with wild peptide by effecter cells stimulated with WT1 modified peptide, and the white squares indicate the cytolytic effect on C1R2402 target cells not pulsed with wild peptide by effecter cells stimulated with WT1 wild peptide.
FIG. 3 is a graph showing the cell killing effects (specific cytolytic activity) on C1R2402 target cells, either pulsed or not pulsed with peptide, by effecter cells stimulated with WT1 wild peptide or the WT1 modified peptide of the present invention. […]

[5] = system: leukemia cells from AML patients (WT1+/A*2402+); assay: 51Cr release cell killing assay on leukemia cells endogenously expressing WT1 antigen; format: cell-based, human; details: FIG. 2, E:T 20:1, 4 hours, AML patient cells WT1+/-
Description: The cell killing activity of effector cells stimulated with WT1 wild peptide or WT1 modified peptide on leukemia cells that endogenously express WT1 antigen was tested according to the ^51Cr release method.

HLA-A*2402 [6] = target: T1, HLA-A*2402; details: reported in J. Immunol., 154, 5994, 1995; cited from earlier work
[7] = resulting cells after stimulation with 20 μM peptide and IL-2 50 U/ml

Molecule	binding affinity for HLA-A*2402 (comparison) (HLA-A*2402 [1])	Kd (HLA-A*2402 [1]; calculated using pmel 15 antigen peptide as standard, 4 hours at room temperature, read-out: Dissociation constant Kd)	cytotoxic activity of peptide-stimulated effector cells on lung cancer cell lines [2]	No. of cells ([3]; PBMC stimulated with 20 μM peptide, responder plus stimulator cells cultured 1 week with IL-2 50 U/ml)	CD4 [3, 7]	CD8 [3, 7]	blocking of cytotoxic activity of peptide-stimulated effector cells by antibodies [4]	cell killing activity (cell lysis) of peptide-stimulated effector cells (C1R2402 cells; Example 1, FIG. 1, E:T ratio 1, 5, 20, C1R2402 target cells pulsed or not pulsed with peptide)	cytotoxic activity of peptide-stimulated effector cells (C1R2402 cells; Example 3, FIG. 3, effector cells from different healthy HLA-A*2402-positive donors)	cytotoxic activity of peptide-stimulated effector cells on leukemia cells [5]	Kd (HLA-A*2402 [1])	binding to HLA-A*2402 (HLA-A*2402 [6])
CSCC[C@H](NC(=O)[C@H](CCC(N)=O)NC(=O)[C@H](CC(N)=O)NC(=O)[C@H](Cc1c[nH]c2ccccc12)NC(=O)[C@@H](NC(=O)[C@H](Cc1ccc(O)cc1)NC(=O)[C@@H](N)CS)[C@@H](C)O)C(=O)N[C@@H](CC(N)=O)C(=O)N[C@@H](CC(C)C)C(=O)O [WT1 modified peptide, Cys Tyr Thr Trp Asn Gln Met Asn Leu] (H-CYTWNQMNL-OH; N-terminus and C-terminus assumed)	stronger binding affinity for HLA-A*2402 than the WT1 wild peptide	0.64 µM	the level of that activity was higher	3.0 × 10^6/well	18%	38%	blocked by anti-HLA class I antibody and anti-CD8 antibody	more potent cell killing activity than cells stimulated with WT1 wild peptide	more potent cytotoxic activity than cells stimulated with WT1 wild peptide	the level of that activity was higher	–	–
CSCC[C@H](NC(=O)[C@H](CCC(N)=O)NC(=O)[C@H](CC(N)=O)NC(=O)[C@H](Cc1c[nH]c2ccccc12)NC(=O)[C@@H](NC(=O)[C@H](CCSC)NC(=O)[C@@H](N)CS)[C@@H](C)O)C(=O)N[C@@H](CC(N)=O)C(=O)N[C@@H](CC(C)C)C(=O)O [WT1 wild peptide, Cys Met Thr Trp Asn Gln Met Asn Leu, reference compound] (H-CMTWNQMNL-OH)	–	–	demonstrated cytotoxic activity only on the WT1+/A*2402+ cells	–	–	–	blocked by anti-HLA class I antibody and anti-CD8 antibody	–	–	demonstrated cytotoxic activity on the WT1+/A*2402 cells	18.2 µM	–
AYGLDFYIL [melanoma antigen peptide used as standard for the Kd calculation]	–	–	–	–	–	–	–	–	–	–	–	reported to bind to HLA-A*2402
